Read-outs that look alike come from different tables or passages of the source.
Columns and labels:
[1] = system: African green monkey kidney cells (VERO); test: Cytotoxic action on non-infected VERO cells; format: cell-based; details: 500 and 1000 μg/ml; 3-days follow-up
[2] = system: porcine embryo kidney cells (SPEV); test: Cytotoxic properties on SPEV cell culture; format: cell-based; details: for Percentage of died cells on exposure with different concentrations of the preparation during 48 hours: SPEV
Method: Cultures of reinoculated porcine embryo kidney cells (SPEV), highly sensitive to the pathogenic action of HSV, obtained from “Narva” Company (Russia) were employed. These cultures were used in the form of a one day monolayer of cells, grown in 24-cell plastic plates. The cultures of SPEV cells were grown on medium 199 with 10% of fetal calf serum with addition of glutamine and antibiotics (100 U/ml).
(§1) For studying the antiviral activity of the preparation, the preparation was introduced in various concentrations into the SPEV cell cultures at the moment of infection and in 24 hours after the infection with hepatitis C virus on the cell in 24-cell plastic culture plates.

[3] = system: lymphoblastoid human cells MT-4; test: Cytotoxicity on non-infected human lymphoblastoid cells; format: cell-based; details: for Cytotoxic action of the preparation on cells: 1, 10 μg/ml and higher (to 100 μg/ml)
HIV-1 [4] = details: for Optical density: 6th day, values >0.086 are positive for HIV
HIV-1 [5] = test: Treatment of HIV-1-infected patients, blood sample analyses
Method: The treatment was carried out in accordance with the following schedule: 20 mg rectal suppositories every three days, one suppository a day during 3 months.

[6] = system: herpes simplex virus (HSV-1); test: Antiviral activity with respect to HSV-1 in VERO cells; format: cell-based, type 1, strain L2; details: 100 TCD50, 48 hours after the infection
From the text: (§2) Herpes simplex virus, type 1, strain L2, replicated in VERO cells was used in the investigation.
(§3) […] acyclovir was used as positive control

Hep 2 cells = test: Apoptosis signs in Hep 2 cells (DNA fragmentation, Fas-antigen mRNA forms); format: cell-based, human; details: for Redistribution of soluble and membrane Fas-antigen mRNA forms indicative of Fas-dependent apoptosis: 10, 50, 100 μg/ml
From the text: A reduction in the intensity of protein profiles was observed on the second day and most dramatically on the seventh day at the studied concentrations of the preparation as compared with control. This can be indicative of a reduction in the number of cells because of inhibition of the mitotic activity of cells in the presence of the preparation. On the 7th day of the action of the preparation a reduction in the number of DNA compared with control was observed. Checking for the presence of DNA fragmentation has shown its absence, i.e., apoptosis manifestations were not detected.
For establishing the influence of the preparation on intracellular biosynthetic processes, we have analyzed the synthesis and maturing in the Hep 2 cells of Fas-antigen mRNA. Fas-antigen is a receptor protein of the signal of programmed death of cells—apoptosis—and it can exist in two forms: in membrane form and in soluble form. It has been shown that in the presence of the preparation there occurs redistribution of the alternative forms of the Fas-antigen mRNA, this being indicative of the influence of the preparation on the biosynthetic processes in Hep 2 cells on the transcripton level; however, reconstructions indicative of the feasibility of Fas-dependent apoptosis are absent (FIG. 8).

[7] = system: herpes simplex virus (HSV-1); test: Antiviral activity with respect to HSV-1 in human embryo fibroblasts (M-21); format: cell-based, type 1, strain L2; details: 100 TCD50, 48 hours after the infection
From the text: as §2, §3

hepatitis C virus = test: Residual infectious activity (titers) of hepatitis C virus in SPEV culture medium; format: cell-based, hepatitis C virus genotype 1b; details: for Lowering of virus titers in SPEV cell cultures: administered simultaneously with the virus
Method: In our work we used cytopathogenic strain of hepatitis C virus belonging to geno-type 1b. The strain was isolated from the blood serum of a patient suffering from chronic viral hepatitis C, identified as hepatic C virus. Infective doses of HSV equal to 10 TCD of 50/20 μl were used in the investigation.
For titrating the residual infectiousness of the virus, the same line of porcine embryo kidney cells (SPEV) was used.
as §1
For determining the residual infectious activity of HSV, samples of the culture fluid were taken from the plate cells three days after the treatment of the infected cells with the preparation and titrated on the SPEV cell cultures. The infectious activity of HSV was taken into account from the results of titration on the 6-7th day after the infection, when maximum cytopathogenic action of the virus developed, applying the Rid and Mench formula for calculating the titer of the Hepatitis C virus.

[8] = 1.0, 10 and 50 μg/ml, introduced 30 and 60 minutes after the infection

sodium salt of fullerene-polyamino-caproic acid
Cytodestructive action on non-infected VERO cells [1]: has not revealed cytodestructive action
Percentage of died cells on exposure with different concentrations of the preparation during 48 hours ([2]; 6.25 (in μg)): 0%
Percentage of died cells on exposure with different concentrations of the preparation during 48 hours ([2]; 12.5 (in μg)): 0%
Percentage of died cells on exposure with different concentrations of the preparation during 48 hours ([2]; 25 (in μg)): 0%
Percentage of died cells on exposure with different concentrations of the preparation during 48 hours ([2]; 50 (in μg)): 0%
Percentage of died cells on exposure with different concentrations of the preparation during 48 hours ([2]; 100 (in μg)): 0%
Cytotoxic properties for SPEV cell cultures ([2]; concentration of up to 100 μg/ml): does not have cytotoxic properties
Viability of cells, % ([3]; 100 μg/ml, non-infected human lymphoblastoid cells (cell control 93)): 85%
Number of cells in 1 ml × 1000 ([3]; 100 μg/ml, non-infected human lymphoblastoid cells (cell control 966)): 866 in 1 ml × 1000
Cytotoxic action of the preparation on cells [3]: no cytotoxic action
Cytotoxic action of the preparation on cells ([3]; listed as sodium salt of fullerene-polyamino-propanoic acid): not detected
Optical density (HIV-1 [4]; 0.5 μg/ml): 2.147
Optical density (HIV-1 [4]; 1.0 μg/ml): 0.165
Optical density (HIV-1 [4]; 10 μg/ml): 0.074
Virus in the culture medium (HIV-1 [4]; 10 μg/ml, HIV-1): not detected
Condition of the patients (HIV-1 [5]; HIV-1-infected patients, 20 mg rectal suppositories, 3 months): improvement
Virus titer (value reciprocal to the dilution of sample that gives 50% CPE or syncytia) (HIV-1 [5]; Patient A, after 1 month, 20 mg rectal suppository every day, before treatment 8): 2
T4-lymphocytes, mm^3 (HIV-1 [5]; Patient A, after 1 month, 20 mg rectal suppository every day, before treatment 59): 355 mm^3
T8-lymphocytes, mm^3 (HIV-1 [5]; Patient A, after 1 month, 20 mg rectal suppository every day, before treatment 63): 455 mm^3
PCR, RNA, copies/ml (HIV-1 [5]; Patient A, after 1 month, 20 mg rectal suppository every day, before treatment 1,200,000): 72,000 copies/ml
Virus titer (value reciprocal to the dilution of sample that gives 50% CPE or syncytia) (HIV-1 [5]; Patient A, after 2 months, 20 mg rectal suppository every day, before treatment 8): 2
T4-lymphocytes, mm^3 (HIV-1 [5]; Patient A, after 2 months, 20 mg rectal suppository every day, before treatment 59): 234 mm^3
T8-lymphocytes, mm^3 (HIV-1 [5]; Patient A, after 2 months, 20 mg rectal suppository every day, before treatment 63): 219 mm^3
PCR, RNA, copies/ml (HIV-1 [5]; Patient A, after 2 months, 20 mg rectal suppository every day, before treatment 1,200,000): 43,000 copies/ml
Virus titer (value reciprocal to the dilution of sample that gives 50% CPE or syncytia) (HIV-1 [5]; Patient A, after 3 months, 20 mg rectal suppository every day, before treatment 8): 0
T4-lymphocytes, mm^3 (HIV-1 [5]; Patient A, after 3 months, 20 mg rectal suppository every day, before treatment 59): 381 mm^3
T8-lymphocytes, mm^3 (HIV-1 [5]; Patient A, after 3 months, 20 mg rectal suppository every day, before treatment 63): 409 mm^3
PCR, RNA, copies/ml (HIV-1 [5]; Patient A, after 3 months, 20 mg rectal suppository every day, before treatment 1,200,000): 44,000 copies/ml
Virus titer (value reciprocal to the dilution of sample that gives 50% CPE or syncytia) (HIV-1 [5]; Patient B, after 1 month, 20 mg rectal suppositories every three days, before treatment 4): 128
T4-lymphocytes, mm^3 (HIV-1 [5]; Patient B, after 1 month, 20 mg rectal suppositories every three days, before treatment 163): 581 mm^3
T8-lymphocytes, mm^3 (HIV-1 [5]; Patient B, after 1 month, 20 mg rectal suppositories every three days, before treatment 257): 464 mm^3
PCR, RNA, copies/ml (HIV-1 [5]; Patient B, after 1 month, 20 mg rectal suppositories every three days, before treatment 140,000): 180,000 copies/ml
Virus titer (value reciprocal to the dilution of sample that gives 50% CPE or syncytia) (HIV-1 [5]; Patient B, after 2 months, 20 mg rectal suppositories every three days, before treatment 4): 2
T4-lymphocytes, mm^3 (HIV-1 [5]; Patient B, after 2 months, 20 mg rectal suppositories every three days, before treatment 163): 329 mm^3
T8-lymphocytes, mm^3 (HIV-1 [5]; Patient B, after 2 months, 20 mg rectal suppositories every three days, before treatment 257): 329 mm^3
PCR, RNA, copies/ml (HIV-1 [5]; Patient B, after 2 months, 20 mg rectal suppositories every three days, before treatment 140,000): 3,500 copies/ml
Virus titer (value reciprocal to the dilution of sample that gives 50% CPE or syncytia) (HIV-1 [5]; Patient B, after 3 months, 20 mg rectal suppositories every three days, before treatment 4): 1
T4-lymphocytes, mm^3 (HIV-1 [5]; Patient B, after 3 months, 20 mg rectal suppositories every three days, before treatment 163): 325 mm^3
T8-lymphocytes, mm^3 (HIV-1 [5]; Patient B, after 3 months, 20 mg rectal suppositories every three days, before treatment 257): 401 mm^3
PCR, RNA, copies/ml (HIV-1 [5]; Patient B, after 3 months, 20 mg rectal suppositories every three days, before treatment 140,000): 2,000 copies/ml
Protection of VERO cells against the cytodestructive action of HSV-1 ([6]; 10 μg/ml): full protection
Protection of VERO cells from the cytodestructive action of HSV-1 [6, 8]: full protection
DNA fragmentation (apoptosis manifestations) (Hep 2 cells): not recorded
Redistribution of soluble and membrane Fas-antigen mRNA forms indicative of Fas-dependent apoptosis (Hep 2 cells): no redistribution
Redistribution of soluble and membrane Fas-antigen mRNA forms indicative of Fas-dependent apoptosis (Hep 2 cells; listed as preparation): absent
DNA fragmentation (apoptosis manifestations) (Hep 2 cells; listed as preparation): absence
Protection of M-21 cells against the cytodestructive action of HSV-1 ([7]; 10 μg/ml): full protection
Protection of M-21 cells from the cytodestructive action of HSV-1 [7, 8]: full protection
Titers of hepatitis C virus in medium samples taken on the 3rd day after infecting (hepatitis C virus; 6.25 μg/ml, introduced 24 hours after infecting (control 9.1)): 9.0 1 g TCD 50/20 μl
Titers of hepatitis C virus in medium samples taken on the 3rd day after infecting (hepatitis C virus; 6.25 μg/ml, introduced at the moment of infecting (control 9.5)): 9.7 1 g TCD 50/20 μl
Titers of hepatitis C virus in medium samples taken on the 3rd day after infecting (hepatitis C virus; 12.5 μg/ml, introduced 24 hours after infecting (control 9.1)): 9.9 1 g TCD 50/20 μl
Titers of hepatitis C virus in medium samples taken on the 3rd day after infecting (hepatitis C virus; 12.5 μg/ml, introduced at the moment of infecting (control 9.5)): 9.5 1 g TCD 50/20 μl
Titers of hepatitis C virus in medium samples taken on the 3rd day after infecting (hepatitis C virus; 25 μg/ml, introduced 24 hours after infecting (control 9.1)): 9.5 1 g TCD 50/20 μl
Titers of hepatitis C virus in medium samples taken on the 3rd day after infecting (hepatitis C virus; 25 μg/ml, introduced at the moment of infecting (control 9.5)): 9.3 1 g TCD 50/20 μl
Lowering of virus titers in SPEV cell cultures (hepatitis C virus; 50 μg/ml, listed as preparation): 3.0 lg
Titers of hepatitis C virus in medium samples taken on the 3rd day after infecting (hepatitis C virus; 50 μg/ml, introduced 24 hours after infecting (control 9.1)): 8.5 1 g TCD 50/20 μl
Titers of hepatitis C virus in medium samples taken on the 3rd day after infecting (hepatitis C virus; 50 μg/ml, introduced at the moment of infecting (control 9.5)): 6.2 1 g TCD 50/20 μl
Lowering of virus titers in SPEV cell cultures (hepatitis C virus; 100 μg/ml): 7.4 lg
Titers of hepatitis C virus in medium samples taken on the 3rd day after infecting (hepatitis C virus; 100 μg/ml, introduced 24 hours after infecting (control 9.1)): 3.0 1 g TCD 50/20 μl
Titers of hepatitis C virus in medium samples taken on the 3rd day after infecting (hepatitis C virus; 100 μg/ml, introduced at the moment of infecting (control 9.5)): 2.1 1 g TCD 50/20 μl
